Reference: patent US9718788B2, “Heteroaryl compounds useful as inhibitors of E1 activating enzymes” (MILLENNIUM PHARMACEUTICALS, INC., priority 2006, dated 2017)

biological target: T1, recombinant human NAE enzyme (Homo sapiens, UniProt Q8TBC4); assay: Nedd8-Activating Enzyme (NAE) HTRF Assay; assay type: biochemical; conditions: 20 μM ATP, bound given in nM
T1 construct: His (N); made in house; host or cells: Sf9 insect cells (baculovirus, Bac-to-Bac)
T1 sequence (Q8TBC4 1-463): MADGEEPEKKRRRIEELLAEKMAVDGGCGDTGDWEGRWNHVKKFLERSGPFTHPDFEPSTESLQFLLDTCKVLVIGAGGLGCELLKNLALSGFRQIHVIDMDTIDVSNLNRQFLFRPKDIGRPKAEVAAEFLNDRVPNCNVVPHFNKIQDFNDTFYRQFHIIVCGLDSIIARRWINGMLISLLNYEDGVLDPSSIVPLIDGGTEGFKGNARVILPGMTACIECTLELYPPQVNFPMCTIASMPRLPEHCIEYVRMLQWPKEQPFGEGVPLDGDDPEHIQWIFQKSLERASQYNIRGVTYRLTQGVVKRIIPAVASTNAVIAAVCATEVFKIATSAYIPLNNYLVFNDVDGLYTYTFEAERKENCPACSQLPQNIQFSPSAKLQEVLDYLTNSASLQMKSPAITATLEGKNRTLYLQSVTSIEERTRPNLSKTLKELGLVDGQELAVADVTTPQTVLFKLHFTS
T1 sequence (Q13564 1-534 partner): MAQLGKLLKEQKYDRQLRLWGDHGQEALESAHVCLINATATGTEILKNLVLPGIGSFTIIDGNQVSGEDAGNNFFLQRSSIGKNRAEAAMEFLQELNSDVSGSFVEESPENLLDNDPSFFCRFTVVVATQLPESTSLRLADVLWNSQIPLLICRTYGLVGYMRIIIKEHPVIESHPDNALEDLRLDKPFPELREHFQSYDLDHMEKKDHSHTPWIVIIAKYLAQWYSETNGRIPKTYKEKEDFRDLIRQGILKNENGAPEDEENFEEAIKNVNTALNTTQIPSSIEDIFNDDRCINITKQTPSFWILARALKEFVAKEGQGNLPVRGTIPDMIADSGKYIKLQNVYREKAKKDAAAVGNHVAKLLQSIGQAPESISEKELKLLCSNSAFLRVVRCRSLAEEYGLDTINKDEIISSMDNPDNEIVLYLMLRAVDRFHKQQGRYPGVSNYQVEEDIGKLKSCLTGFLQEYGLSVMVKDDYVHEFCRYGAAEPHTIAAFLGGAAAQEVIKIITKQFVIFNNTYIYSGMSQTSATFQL
Protocol: Following manufacturer instructions, baculoviruses were generated with the Bac-to-Bac Expression System (Invitrogen) for the following proteins: untagged NAEα (APPBP1; NP_003896.1), N-terminally His-tagged NAEJ (UBE1C; NP_003959.3), untagged SAEα (SAE1; NP_005491.1), N-terminally His-tagged SAE3 (UBA2; NP_005490.1), N-terminally His-tagged murine UAE (UBE1X; NP_033483). NAEα/His-NAEβ and SAEα/His-SAEβ complexes were generated by co-infection of Sf9 cells, which were harvested after 48 hours. His-mUAE was generated by single infection of Sf9 cells and harvested after 72 hours. Expressed proteins were purified by affinity chromatography (Ni-NTA agarose, Qiagen) using standard buffers. Nedd8-Activating Enzyme (NAE) HTRF Assay. The NAE enzymatic reaction totaled 50 μL and contained 50 mM HEPES (pH 7.5), 0.05% BSA, 5 mM MgCl2, 20 μM ATP, 250 μM GSH, 0.01 μM Ubc12-GST, 0.075 μM Nedd8-Flag and 0.20 nM recombinant human NAE enzyme. The enzymatic reaction mixture, with and without compound inhibitor, was incubated at room temperature 24° C. for 105 minutes in a 384-well plate before termination with 25 μL of Stop/Detection buffer (0.1M HEPES pH 7.5, 0.05% Tween20, 20 mM EDTA, 410 mM KF, 0.53 nM Europium-Cryptate labeled monoclonal anti-FLAG M2 antibody (CisBio International) and 8.125 μg/mL PHYCOLINK goat anti-GST allophycocyanin (XL-APC) antibody (Prozyme)). After incubation for 1 hour at 24° C., quantification of the FRET was performed on the Analyst™ HT 96.384 (Molecular Devices).

SMILES	IC50 [nM]
NS(=O)(=O)OC[C@@H]1C[C@@H](Oc2cc(Cc3ccccc3)ncn2)C[C@@H]1O [Compound I-132, {(1S,2S,4R)-4-[(6-benzylpyrimidin-4-yl)oxy]-2-hydroxycyclopentyl}methyl sulfamate]	> 500
CN(c1ncnc2[nH]c(-c3cccc4ccccc34)nc12)[C@@H]1C[C@@H](COS(N)(=O)=O)[C@@H](O)C1 [Compound I-46, ((1S,2S,4R)-2-hydroxy-4-{methyl[8-(1-naphthyl)-9H-purin-6-yl]amino}-cyclopentyl)methyl sulfamate]	≤ 500
NS(=O)(=O)OC[C@@H]1C[C@@H](Nc2ncnc3nc(-c4ccc(OCc5ccccc5)cc4)[nH]c23)C[C@@H]1O [Compound I-102, [(1S,2S,4R)-4-({8-[4-(benzyloxy)phenyl]-7H-purin-6-yl}amino)-2-hydroxycyclopentyl]methyl sulfamate]	≤ 500
NS(=O)(=O)OC[C@@H]1C[C@@H](Nc2ncnc3[nH]c(-c4ccccc4Cl)nc23)C[C@@H]1O [Compound I-34, ((1S,2S,4R)-4-{[8-(2-chlorophenyl)-9H-purin-6-yl]amino}-2-hydroxycyclopentyl)methyl sulfamate]	≤ 500
NS(=O)(=O)OC[C@@H]1C[C@@H](Cc2cc(N[C@H]3CCc4ccccc43)ncn2)C[C@@H]1O [Compound I-33, [(1S,2S,4S)-4-({6-[(1S)-2,3-dihydro-1H-inden-1-ylamino]pyrimidin-4-yl}methyl)-2-hydroxycyclopentyl]methyl sulfamate]	> 500
NS(=O)(=O)OC[C@@H]1C[C@@H](Oc2ncnc3nc(-c4cncc5ccccc45)[nH]c23)C[C@@H]1O [Compound I-112, {(1S,2S,4R)-2-hydroxy-4-[(8-isoquinolin-4-yl-7H-purin-6-yl)oxy]cyclopentyl}methyl sulfamate]	≤ 500
NS(=O)(=O)OC[C@@H]1C[C@@H](Nc2ncnc3oc(-c4ccccc4)nc23)C[C@@H]1O [Compound I-90, {(1S,2S,4R)-2-hydroxy-4-[(2-phenyl[1,3]oxazolo[5,4-d]pyrimidin-7-yl)amino]cyclopentyl}methyl sulfamate]	≤ 500

More lines, now with the values ahead:

IC50 [nM]	SMILES
≤ 500	Cc1cccc(S(=O)(=O)c2nc3c(O[C@@H]4C[C@@H](COS(N)(=O)=O)[C@@H](O)C4)ncnc3[nH]2)c1 [Compound I-101, [(1S,2S,4R)-2-hydroxy-4-({8-[(3-methylphenyl)sulfonyl]-9H-purin-6-yl}oxy)cyclopentyl]methyl sulfamate]
≤ 500	NS(=O)(=O)OC[C@@H]1C[C@@H](Nc2ncnc3[nH]c(-c4ccccc4)nc23)C[C@@H]1O [Compound I-69, {(1S,2S,4R)-2-hydroxy-4-[(8-phenyl-9H-purin-6-yl)amino]cyclopentyl}methyl sulfamate]
≤ 500	NS(=O)(=O)OC[C@@H]1C[C@@H](Nc2ncnc3[nH]c(Cc4ccccc4)nc23)C[C@@H]1O [Compound I-88, {(1S,2S,4R)-4-[(8-benzyl-9H-purin-6-yl)amino]-2-hydroxycyclopentyl}methyl sulfamate]
≤ 500	Cc1nc(N[C@H]2CCc3ccccc32)nc(N[C@@H]2C[C@H](COS(N)(=O)=O)[C@@H](O)[C@H]2O)n1 [Compound I-45, [(1R,2R,3S,4R)-4-({4-[(1S)-2,3-dihydro-1H-inden-1-ylamino]-6-methyl-1,3,5-triazin-2-yl}amino)-2,3-dihydroxycyclopentyl]methyl sulfamate]

same assay, conditions: 20 μM ATP, bound given in μM

SMILES	IC50 [nM]
NS(=O)(=O)OC[C@@H]1C[C@@H](Oc2cc(Cc3ccccc3)ncn2)C[C@@H]1O [Compound I-132, {(1S,2S,4R)-4-[(6-benzylpyrimidin-4-yl)oxy]-2-hydroxycyclopentyl}methyl sulfamate]	< 10000
NS(=O)(=O)OC[C@@H]1C[C@@H](Cc2cc(N[C@H]3CCc4ccccc43)ncn2)C[C@@H]1O [Compound I-33, [(1S,2S,4S)-4-({6-[(1S)-2,3-dihydro-1H-inden-1-ylamino]pyrimidin-4-yl}methyl)-2-hydroxycyclopentyl]methyl sulfamate]	< 10000

The next lines start with the values.

IC50 [nM]	SMILES
> 10000	CN(Cc1ccccc1)c1nccc(N[C@@H]2C[C@H](COS(N)(=O)=O)[C@@H](O)[C@H]2O)n1 [Compound I-20, [(1R,2R,3S,4R)-4-({2-[benzyl(methyl)amino]pyrimidin-4-yl}amino)-2,3-dihydroxycyclopentyl]methyl sulfamate]
> 10000	Cc1nc(N)cc(N[C@@H]2C[C@H](COS(N)(=O)=O)[C@@H](O)[C@H]2O)n1 [Compound I-13, {(1R,2R,3S,4R)-4-[(6-amino-2-methylpyrimidin-4-yl)amino]-2,3-dihydroxycyclopentyl}methyl sulfamate]
